From ChEMBL document CHEMBL1157197, “Design, synthesis and trypanocidal activity of lead compounds based on inhibitors of parasite glycolysis” (Bioorg Med Chem, 2008)

Columns and labels:
[1] = target: T1, Pyruvate kinase (Leishmania mexicana) (UniProt Q27686); test: Inhibition of Leishmania mexicana pyruvate kinase assessed as enzyme residual activity at 5 mM
T1 sequence (whole entry): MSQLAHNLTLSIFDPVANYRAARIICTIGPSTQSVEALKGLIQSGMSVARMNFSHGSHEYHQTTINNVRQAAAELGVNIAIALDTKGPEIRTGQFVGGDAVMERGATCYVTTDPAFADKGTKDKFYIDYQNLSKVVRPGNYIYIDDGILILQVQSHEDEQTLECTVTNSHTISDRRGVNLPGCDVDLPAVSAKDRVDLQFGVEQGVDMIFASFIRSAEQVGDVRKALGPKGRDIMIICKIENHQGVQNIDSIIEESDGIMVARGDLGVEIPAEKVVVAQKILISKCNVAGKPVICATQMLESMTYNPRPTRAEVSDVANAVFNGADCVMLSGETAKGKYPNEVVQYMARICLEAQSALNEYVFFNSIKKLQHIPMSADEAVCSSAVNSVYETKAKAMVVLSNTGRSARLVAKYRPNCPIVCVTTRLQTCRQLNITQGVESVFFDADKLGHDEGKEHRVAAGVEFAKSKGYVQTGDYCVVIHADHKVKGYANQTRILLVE

[2] = target: T2, ATP-dependent 6-phosphofructokinase (Trypanosoma brucei) (UniProt O15648); test: Inhibition of Trypanosoma brucei phosphofructokinase assessed as enzyme residual activity at 5 mM
T2 sequence (whole entry): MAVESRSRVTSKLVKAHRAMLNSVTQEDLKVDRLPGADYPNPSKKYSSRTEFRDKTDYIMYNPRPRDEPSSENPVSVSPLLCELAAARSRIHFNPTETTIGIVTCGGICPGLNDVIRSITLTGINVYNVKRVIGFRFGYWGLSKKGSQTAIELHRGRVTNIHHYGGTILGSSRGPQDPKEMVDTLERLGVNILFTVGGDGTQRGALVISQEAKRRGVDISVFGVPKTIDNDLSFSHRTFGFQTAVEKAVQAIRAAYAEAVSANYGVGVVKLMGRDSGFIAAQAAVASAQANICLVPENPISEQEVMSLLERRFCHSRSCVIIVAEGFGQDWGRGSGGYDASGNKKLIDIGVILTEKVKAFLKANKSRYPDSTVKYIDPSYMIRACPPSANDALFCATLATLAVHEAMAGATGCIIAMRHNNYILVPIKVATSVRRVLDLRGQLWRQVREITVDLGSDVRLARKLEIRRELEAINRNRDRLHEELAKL

Pyruvate kinase = target: T3, Pyruvate kinase (Leishmania mexicana, UniProt Q27686); test: Inhibition of Leishmania mexicana pyruvate kinase
T3 sequence (Q27686 whole entry): T1 sequence (whole entry)

[3] = target: T2, ATP-dependent 6-phosphofructokinase (Trypanosoma brucei); test: Inhibition of Trypanosoma brucei phosphofructokinase assessed as enzyme residual activity at 1 mM

C[C@H](NC[C@H]1O[C@H](CO)[C@@H](O)[C@@H]1O)c1ccc(Cl)cc1
Activity [1]: 58%

Cc1ccc(C)c(CNC[C@H]2O[C@H](CO)[C@@H](O)[C@@H]2O)c1
Activity [2]: 69%

Cc1ccccc1CNC[C@H]1O[C@H](CO)[C@@H](O)[C@@H]1O
Activity [1]: 100% | Activity [2]: 68%

OC[C@H]1O[C@H](CNCc2ccc(Cl)cc2Cl)[C@@H](O)[C@@H]1O
Activity [2]: 58%

O=C(Nc1ccc([N+](=O)[O-])cc1)[C@H]1O[C@H](CNC2CCCCCC2)[C@@H](O)[C@@H]1O
Activity [1]: 12.5%

OC[C@H]1O[C@H](CNCc2cccc(C(F)(F)F)c2)[C@@H](O)[C@@H]1O
Activity [1]: 105% | Activity [2]: 46%

OC[C@H]1O[C@H](CN[C@H]2c3ccccc3C[C@H]2O)[C@@H](O)[C@@H]1O
Activity [1]: 103% | Activity [2]: 52%

OC[C@H]1O[C@H](CNCc2cccc(Cl)c2)[C@@H](O)[C@@H]1O
Activity [1]: 88% | Activity [2]: 85%

OC[C@H]1O[C@H](CNC2CCCCCCC2)[C@@H](O)[C@@H]1O
Activity [1]: 57% | Activity [2]: 64%

OC[C@H]1O[C@H](CNC2Cc3ccccc3C2)[C@@H](O)[C@@H]1O
Activity [1]: 49% | Activity [2]: 33%

CC(C)CCC(C)NC[C@H]1O[C@H](CO)[C@@H](O)[C@@H]1O (stereo partly drawn)
Activity [1]: 115% | Activity [2]: 44%

C=CCNC(=O)[C@H]1O[C@H](CNC2CCCCCC2)[C@@H](O)[C@@H]1O
Activity [1]: 19.1%

OC[C@H]1O[C@H](CN[C@@H]2C[C@@H]3CC[C@@H]2C3)[C@@H](O)[C@@H]1O
Activity [1]: 47%

C[C@@H](NC[C@H]1O[C@H](CO)[C@@H](O)[C@@H]1O)c1ccc2ccccc2c1
Activity [1]: 34% | Activity [2]: 33% | IC50 (Pyruvate kinase): 1.5 mM

CCC(CO)NC[C@H]1O[C@H](CO)[C@@H](O)[C@@H]1O (stereo partly drawn)
Activity [1]: 90% | Activity [2]: 36%

CC(C)[C@H](C)NC[C@H]1O[C@H](CO)[C@@H](O)[C@@H]1O
Activity [1]: 26% | Activity [2]: 49% | IC50 (Pyruvate kinase): 2.3 mM

COC[C@H](C)NC[C@H]1O[C@H](CO)[C@@H](O)[C@@H]1O
Activity [1]: 82% | Activity [2]: 35%

O=C(Nc1cccc([N+](=O)[O-])c1)[C@H]1O[C@H](CNC2CCCCCC2)[C@@H](O)[C@@H]1O
Activity [1]: 7.6% | IC50 (Pyruvate kinase): 0.053 mM

O=C(Nc1ccccc1)[C@H]1O[C@H](CNC2CCCCCC2)[C@@H](O)[C@@H]1O
Activity [1]: 24.8%

O=C(NCc1ccccc1)[C@H]1O[C@H](CNCc2ccc(Cl)c(Cl)c2)[C@@H](O)[C@@H]1O
Activity [3]: 4%

CC(CCc1ccccc1)NC[C@H]1O[C@H](CO)[C@@H](O)[C@@H]1O (stereo partly drawn)
Activity [1]: 95% | Activity [2]: 73%

CC(NC[C@H]1O[C@H](CO)[C@@H](O)[C@@H]1O)C(O)c1ccccc1 (stereo partly drawn)
Activity [1]: 80% | Activity [2]: 64%

C[C@H](NC[C@H]1O[C@H](CO)[C@@H](O)[C@@H]1O)c1ccc2ccccc2c1
Activity [1]: 30% | IC50 (Pyruvate kinase): 1.5 mM

Cc1cccc(CNC[C@H]2O[C@H](CO)[C@@H](O)[C@@H]2O)c1
Activity [1]: 89% | Activity [2]: 61%

OC[C@H]1O[C@H](CNC2CCCC2)[C@@H](O)[C@@H]1O
Activity [1]: 52% | Activity [2]: 87% | IC50 (Pyruvate kinase): 4.1 mM

OC[C@H]1O[C@H](CNCc2ccc(-c3ccccc3)cc2)[C@@H](O)[C@@H]1O
Activity [2]: 75%

C[C@@H](NC[C@H]1O[C@H](CO)[C@@H](O)[C@@H]1O)c1ccc(Cl)cc1
Activity [1]: 84%

OC[C@H]1O[C@H](CNCc2ccc(Cl)cc2)[C@@H](O)[C@@H]1O
Activity [1]: 81% | Activity [2]: 65%

CC(C)C[C@@H](CO)NC[C@H]1O[C@H](CO)[C@@H](O)[C@@H]1O
Activity [1]: 73% | Activity [2]: 64%

CC(C)[C@@H](C)NC[C@H]1O[C@H](CO)[C@@H](O)[C@@H]1O
Activity [1]: 86% | Activity [2]: 51%

OC[C@H]1O[C@H](CNC2CCc3ccccc32)[C@@H](O)[C@@H]1O (stereo partly drawn)
Activity [1]: 86% | Activity [2]: 41%

C[C@@H](NC[C@H]1O[C@H](CO)[C@@H](O)[C@@H]1O)c1ccc(F)cc1
Activity [1]: 53%

C[C@H](NC[C@H]1O[C@H](CO)[C@@H](O)[C@@H]1O)c1ccc(F)cc1
Activity [1]: 36%

Cc1ccc(CNC[C@H]2O[C@H](CO)[C@@H](O)[C@@H]2O)c(C)c1
Activity [1]: 103% | Activity [2]: 87%

O=C(NC1CCCCCC1)[C@H]1O[C@H](CNC2CCCCCC2)[C@@H](O)[C@@H]1O
Activity [1]: 1.9% | IC50 (Pyruvate kinase): 0.026 mM

Cc1ccc(CNC[C@H]2O[C@H](CO)[C@@H](O)[C@@H]2O)cc1
Activity [1]: 90% | Activity [2]: 73%

CC(CCCC(C)(C)O)NC[C@H]1O[C@H](CO)[C@@H](O)[C@@H]1O (stereo partly drawn)
Activity [1]: 125% | Activity [2]: 58%

OC[C@H]1O[C@H](CNCc2ccccc2F)[C@@H](O)[C@@H]1O
Activity [1]: 42% | Activity [2]: 63%

OC[C@H]1O[C@H](CNC(c2ccccc2)c2ccccc2)[C@@H](O)[C@@H]1O
Activity [1]: 89% | Activity [2]: 30%

CC(C)C[C@H](CO)NC[C@H]1O[C@H](CO)[C@@H](O)[C@@H]1O
Activity [1]: 86% | Activity [2]: 52%

CCCC(C)NC[C@H]1O[C@H](CO)[C@@H](O)[C@@H]1O (stereo partly drawn)
Activity [1]: 26% | Activity [2]: 70% | IC50 (Pyruvate kinase): 2.5 mM

OC[C@H](Cc1ccccc1)NC[C@H]1O[C@H](CO)[C@@H](O)[C@@H]1O
Activity [1]: 72% | Activity [2]: 83%

OC[C@H]1O[C@H](CNCc2ccc(F)cc2)[C@@H](O)[C@@H]1O
Activity [1]: 107% | Activity [2]: 59%

OC[C@H]1O[C@H](CNC2CCCCC2)[C@@H](O)[C@@H]1O
Activity [1]: 83% | Activity [2]: 69%

OC[C@H]1O[C@H](CN[C@H]2C[C@@H]3CC[C@@H]2C3)[C@@H](O)[C@@H]1O
Activity [1]: 19% | Activity [2]: 40% | IC50 (Pyruvate kinase): 1.5 mM

OC[C@H]1O[C@H](CNCc2ccccc2Cl)[C@@H](O)[C@@H]1O
Activity [1]: 71% | Activity [2]: 65%

OC[C@@H](Cc1ccccc1)NC[C@H]1O[C@H](CO)[C@@H](O)[C@@H]1O
Activity [1]: 97% | Activity [2]: 77%

OC[C@H]1O[C@H](CNC2CCC2)[C@@H](O)[C@@H]1O
Activity [1]: 43% | Activity [2]: 54% | IC50 (Pyruvate kinase): 4.3 mM

OCC(Cc1ccccc1)NC[C@H]1O[C@H](CO)[C@@H](O)[C@@H]1O (stereo partly drawn)
Activity [1]: 59% | Activity [2]: 47%

OCCC(NC[C@H]1O[C@H](CO)[C@@H](O)[C@@H]1O)c1ccccc1 (stereo partly drawn)
Activity [1]: 85% | Activity [2]: 47%

Cc1ccc(CNC[C@H]2O[C@H](CO)[C@@H](O)[C@@H]2O)cc1C
Activity [1]: 85% | Activity [2]: 59%

OC[C@H]1O[C@H](CN[C@@H]2c3ccccc3C[C@@H]2O)[C@@H](O)[C@@H]1O
Activity [1]: 60% | Activity [2]: 57%

COc1ccc([C@@H](C)NC[C@H]2O[C@H](CO)[C@@H](O)[C@@H]2O)cc1
Activity [1]: 25% | IC50 (Pyruvate kinase): 0.9 mM

OC[C@H]1O[C@H](CNCc2cccc(F)c2)[C@@H](O)[C@@H]1O
Activity [1]: 100% | Activity [2]: 57%

O=C(NCc1ccccc1)[C@H]1O[C@H](CNC2CCCCCC2)[C@@H](O)[C@@H]1O
Activity [1]: 11.5%

CC[C@@H](C)NC[C@H]1O[C@H](CO)[C@@H](O)[C@@H]1O
Activity [1]: 28%

CC(C)CCCC(C)NC[C@H]1O[C@H](CO)[C@@H](O)[C@@H]1O (stereo partly drawn)
Activity [1]: 80% | Activity [2]: 87%

COc1ccc([C@H](C)NC[C@H]2O[C@H](CO)[C@@H](O)[C@@H]2O)cc1
Activity [1]: 22% | IC50 (Pyruvate kinase): 3.5 mM
